Measurements reported in patent US8809619B2, “Knockout mice for a P450 gene cluster” (ITI Scotland Limited, priority 2007, dated 2014).
“Also recorded” adds a separate entry of the source.

How the values were obtained:
Cyp3a [1] = assay: Oxidation of DBF by liver and intestinal microsomes
Cyp3a [2] = assay: Oxidation of BFC by liver and intestinal microsomes; assay type: in vitro ADME, mouse
Cyp1a1 and Cyp1a2 = assay: Ethoxyresorufin de-ethylation activity (EROD) of liver microsomes; assay type: in vivo, mouse; details: both strains
Description: (B)—Ethoxyresorufin de-ethylation; (C)—methoxyresorufin de-methylation. Data are mean±SD (n=4).
Ethoxyresorufin de-ethylation activity (EROD) was similar in both Cyp3a cluster KO and wild type mouse liver microsomes. EROD is catalysed by both Cyp1a 1 and Cyp1a2 isoforms, with Cyp1a1 making the major contribution. […] There was no difference in methoxyresoryfin de-methylation (MROD) activity between wild type and Cyp3a cluster KO mice. MROD is catalysed predominantly by Cyp1a2.

[3] = Description: The study consisted of 4 groups with 4 animals per group. […] On day 4 of the study midazolam (1 mg/kg) was administered by IP injection and 10 μL blood samples were collected at 10, 20, 40, 60, 120, 240 and 360 min for PK analysis (Table 1).
Cyp3a [4] = assay: Oxidation of 7-BQ by liver microsomes
[5] = 1'-Hydroxymidazolam pharmacokinetics after IV or oral midazolam; details: for Decrease in AUC for 1'-hydroxymidazolam compared to wild type: midazolam 1 mg/kg IV, rifampicin pre-treated
Description: On day 4 of the study midazolam (1 mg/kg) was administered by IV injection to animals from groups 1-6 and orally (2 mg/kg) to mice from groups 7-9. Blood samples were collected at 2, 5, 10, 20, 30, 45, 60, 90, 120 and 150 min (serial bleeds) after IV dosing, at 10, 20, 40, 60, 90, 120, 240 and 360 min after the oral dosing, for PK analysis (Table 3).
Total concentrations of 1′-hydroxymidazolam were measured following pre-treatment of blood with B-glucuronidase. The pharmacokinetics of the 1′-hydroxymidazolam after the IV injection of the parent compound are presented on FIG. 1s.

Cyp2b10 and Cyp2c29 = assay: 16β-Hydroxylation of testosterone by liver microsomes; details: liver microsomes of both transgenic strains
Cyp3a [6] = assay: 6β-Hydroxylation of testosterone by liver and intestinal microsomes; details: Cyp3a cluster KO and Cyp3a11 KO

O=C(OCc1ccccc1)c1ccccc1-c1c2ccc(=O)cc-2oc2cc(OCc3ccccc3)ccc12 [DBF, dibenzylfluorescein]
DBF oxidation by liver microsomes compared to wild type (Cyp3a [1]; Cyp3a cluster KO and Cyp3a11 KO): pronounced decrease | DBF oxidation by intestinal microsomes, wild type vs knockout strains (Cyp3a [1]; intestinal microsomes): no statistically significant difference

O=c1cc(C(F)(F)F)c2ccc(OCc3ccccc3)cc2o1 [BFC, 7-benzyloxy-4-trifluoromethylcoumarin]
BFC activity between liver microsomal samples (Cyp3a [2]; C57BL/6J, Cyp3a cluster KO, Cyp3a11 KO liver microsomes): no difference | BFC oxidation in intestinal microsomes of transgenic mice (Cyp3a [2]; intestinal microsomes): small but statistically significant increase

CO[C@H]1/C=C/O[C@@]2(C)Oc3c(C)c(O)c4c(O)c(c(/C=N/N5CCN(C)CC5)c(O)c4c3C2=O)NC(=O)/C(C)=C\C=C\[C@H](C)[C@H](O)[C@@H](C)[C@@H](O)[C@@H](C)[C@H](OC(C)=O)[C@@H]1C [rifampicin]
EROD metabolism after rifampicin (Cyp1a1 and Cyp1a2): small induction | Effect of rifampicin treatment on midazolam elimination ([3]; rifampicin 60 mg/kg 3 daily doses, midazolam 1 mg/kg IP day 4, both strains, higher effect in C57BL/6J): accelerated elimination

c1ccc(COc2ccc3cccnc3c2)cc1 [7-BQ, 7-benzyloxyquinoline]
Activity towards 7-BQ in Cyp3a cluster KO, level compared to the wild type mice (Cyp3a [4]; conclusion statement): below 20% | 7-BQ oxidation in Cyp3a cluster KO liver microsomes, % of corresponding C57BL/6J group (Cyp3a [4]; control animals): 18% | 7-BQ oxidation in Cyp3a cluster KO liver microsomes, % of corresponding C57BL/6J group (Cyp3a [4]; rifampicin treated animals): 6.7%

OCc1ncc2n1-c1ccc(Cl)cc1C(c1ccccc1F)=NC2 [1′-hydroxymidazolam]
Decrease in AUC for 1'-hydroxymidazolam compared to wild type ([5]; Cyp3a11 KO): ~2 times | Decrease in AUC for 1'-hydroxymidazolam compared to wild type ([5]; Cyp3a cluster KO): ~3 times | Terminal phase elimination of 1'-hydroxymidazolam compared to other strains ([5]; Cyp3a cluster KO, midazolam IV): slightly slower elimination

C[C@]12CC[C@H]3[C@@H](CCC4=CC(=O)CC[C@@]43C)[C@@H]1CC[C@@H]2O [testosterone]
16β-Hydroxylation of testosterone compared to wild type (Cyp2b10 and Cyp2c29): increased | 6β-hydroxylation of testosterone compared to wild type (Cyp3a [6]): significant decrease

Cc1ncc2n1-c1ccc(Cl)cc1C(c1ccccc1F)=NC2 [midazolam]
Absorption after IP administration ([3]; midazolam 1 mg/kg IP, both mouse strains): fast absorption | Midazolam AUC / PK, Cyp3a cluster KO compared to wild type ([3]; midazolam 1 mg/kg IP, control (untreated) animals): similar; also recorded: no difference | Difference in midazolam AUC, Cyp3a cluster KO vs wild type ([3]; rifampicin treated mice): 1.6 times
